# In US7413876B2 (priority 1990, dated 2008):
# Experiments:
# [1] = biological target: human β2-adrenergic receptor (hβAR) (Homo sapiens, UniProt P07550)
# Method: After 36 hours, cells were harvested and spheroplasts were prepared as described. […] Briefly, the spheroplasts were resuspended in 50 mM Tris-HCl pH 7.4, 5 mM EDTA and were lysed by vortex mixing with glass beads for three one-min periods at 4° C.
# FIG. 2 illustrates hβAR ligand binding to membranes from pYβAR2-transformed yeast cells. […] Specific binding was defined as the amount of total binding (circles) minus nonspecific binding measured in the presence of 10 μM (−) alprenolol (squares).
# [2] = biological target: T1, Human β-Adrenergic Receptor (Homo sapiens, UniProt P07550); details: Monkey COS-7 (pBC12: β, BAR); cited from earlier work
# T1 construct: expressed in transfected cells; host or cells: monkey COS-7 cells
# [3] = system: 8c cells coexpressing hβAR and rat Gsα; experiment: Shmoo formation (morphology) of yeast strain 8c (gpa1) coexpressing hβAR and rat Gsα
# Method: Colonies were transferred to similar plates containing 0.5 mM ascorbic acid and the indicated adrenergic ligand(s). After 16-20 hours at 30° C., the colonies were transferred to similar liquid media at a density of 10^6-10^7 cells/ml and examined by phase contrast microscopy.
# [4] = system: pheromone-responsive FUS1 gene promoter; experiment: FUS1-lacZ β-galactosidase induction in 8cl (gpal) cells coexpressing hβAR and rat Gsα; assay type: cell-based, yeast
# Method: To confirm that the pheromone signaling pathway was activated by hβAR and rat Gsα, agonist induction of the pheromone-responsive FUSl gene promoter was measured in a strain of yeast derived from 8c cells (8cl) in which a FUS1-lacZ gene fusion had been stably integrated into the genome.
# Strains 8c (FIG. 3, legend) and NNY19 (MATa ura3 leu2 his3 trp1 lys2 FUSl-LacZ::LEU2) were modified by integrative transformation with YIpFUS102 (LEU2), S. Nomoto et al., supra, and designated 8cl and NNY19, respectively. These strains were transformed with pYβAR2 and pYSK136Gαs and maintained on minimal selective plates containing glucose and 50 μM CuSO4. […] See J. Miller, supra.
# Agonist stimulation was stereoselective and was blocked by addition of a specific antagonist. Agonist responsiveness was dependent on expression of both hβAR and rat Gsα, and required a strain in which the endogenous G protein α-subunit was disrupted.
molecule,measurement,setting,value
"CC(C)(C)NC[C@H](O)COc1cccc2[nH]c(C#N)c(I)c12 [125I-CYP, 125I-labeled cyanopindolol]",Kd,"[1]; read-out: Kd for 125I-CYP binding, 125I-CYP 5-400 pM, nonspecific binding with 10 μM (−) alprenolol",0.093 nM
"CC(C)(C)NC[C@H](O)COc1cccc2[nH]c(C#N)c([125I])c12 [125I-CYP, 125I-labeled cyanopindolol]","Bmax, maximum ligand bound",[2],24 pmol/mg
same,"Bmax, maximum ligand bound","[1]; Yeast SC261 (pYβAR2, pMTL9) membranes",115 pmol/mg
same,binding of 125I-CYP to membranes,[1]; membranes from pYβAR2-transformed yeast cells,bound in a saturable manner and with high affinity
C=CCc1ccccc1OCC(O)CNC(C)C (stereo not drawn) [alprenolol],block of isoproterenol-induced shmoo formation,[3]; 100 μM (−) isoproterenol and 50 μM (−) alprenolol,blocked
CC(C)NCC(O)c1ccc(O)c(O)c1 (stereo not drawn) [isoproterenol],induction of β-galactosidase activity,"[4]; 8cl (gpal) cells, 4 hour incubation at 30° C.",dramatic isoproterenol-stimulated induction
same,final β-galactosidase activity relative to α-factor in nontransformed NNY19 cells,[4]; transformed 8cl cells vs NNY19 cells expressing GPA1,comparable to that induced by α-factor
same,shmoo formation,"[3]; 100 μM isoproterenol, 16-20 hours at 30° C., phase contrast microscopy",induced shmoo formation
(−) epinephrine,Ki,[1],664 ± 123 nM
